Assay type in all cases: in vivo
Assay [1] relates to Setaria faberi (SETFA). Briefly: Test 2 glasshouse assay (IF50 formulation, X-77), post-emergence herbicidal activity. Conditions: 360 h, 15 DAA, visual score, read-out: Post-emergence herbicidal activity (percentage phytotoxicity) SETFA; for pest or weed control at 250 g/ha: application rate 250 g/ha; for pest or weed control at 30 g/ha: application rate 30 g/ha. The protocol:
(§1) Seeds of a variety of monocotyledonous and dicotyledonous test plants are sown in standard soil in pots. The plants are cultivated for one day (for pre-emergence) or for about 12 days (for post-emergence) under controlled conditions in a glasshouse (warm climate species at 24/18° C., cool climate species at 20/16° C., both at day/night; 16 hours light; 65% humidity).
(§2) An “instant formulation”, known as the “IF50”, containing 50 g/liter (i.e. 5% w/v) of the “technical” (i.e. unformulated) active ingredient is prepared by dissolving the active ingredient in a mixture of organic solvents and emulsifier, details of which are provided in the Table below. This IF50 is then mixed with a small, variable amount of acetone to aid dissolution, before addition of a 0.2% v/v aqueous solution of the adjuvant X-77 (which is a mixture of alkyl aryl polyoxyethylene glycols and free fatty acids in isopropanol, CAS Registry number 11097-66-8), as the aqueous diluent, to form an aqueous spray solution which contains a predetermined concentration of the active ingredient (which varies depending on the application rate of the active ingredient to the plants) and 0.2% v/v of the adjuvant X-77. This aqueous spray solution is then sprayed onto the plants, after one day's cultivation (for pre-emergence), or after about 12 days' cultivation (range=10-13 days) (for post-emergence).
(§3) The test plants are then grown on, in a glasshouse (greenhouse) under controlled conditions (warm climate species at 24/18° C., cool climate species at 20/16° C., both at day/night; 16 hours light; 65% humidity) and are watered twice daily. 15 days after application of the test herbicide (15DAA) (for post-emergence), and 20 days after application of the test herbicide (20DAA) (for pre-emergence), the test plants are evaluated visually, and an assessed percentage phytotoxicity score is given for each herbicidal application on each plant species (with 100%=total damage to plant; 0%=no damage to plant).
(§4) Warm climate (“warm season”) grassy monocotyledonous weeds: Setaria faberi (SETFA), Panicum miliaceum (PANMI), Sorghum vulgare Pers. (SORVU) (or Sorghum bicolor (L) Moench ssp. Bicolor), Digitaria sanguinalis (DIGSA), Echinochloa crus-galli (ECHCG), and Brachiaria plantaginea (BRAPL).

In assay [2] the test system is Panicum miliaceum (PANMI). The description is as above. Conditions: 360 h, 15 DAA, visual score, read-out: Post-emergence herbicidal activity (percentage phytotoxicity) PANMI; for pest or weed control at 250 g/ha: application rate 250 g/ha; for pest or weed control at 30 g/ha: application rate 30 g/ha. On the procedure:
as §1, §2, §3, §4

Assay [3] has as its system Echinochloa crus-galli (ECHCG). The description is as above. Conditions: 360 h, 15 DAA, visual score, read-out: Post-emergence herbicidal activity (percentage phytotoxicity) ECHCG; for pest or weed control at 250 g/ha: application rate 250 g/ha; for pest or weed control at 30 g/ha: application rate 30 g/ha. The protocol:
as §1, §2, §3, §4

The subject of assay [4] is Sorghum vulgare Pers. (SORVU). The assay is described as above. The conditions noted are these: Sorghum bicolor, 360 h, 15 DAA, visual score, read-out: Post-emergence herbicidal activity (percentage phytotoxicity) SORVU; for pest or weed control at 250 g/ha: application rate 250 g/ha; for pest or weed control at 30 g/ha: application rate 30 g/ha. On the procedure:
as §1, §2, §3, §4

The subject of assay [5] is Digitaria sanguinalis (DIGSA). The assay is described as above. Conditions: 360 h, 15 DAA, visual score, read-out: Post-emergence herbicidal activity (percentage phytotoxicity) DIGSA; for pest or weed control at 250 g/ha: application rate 250 g/ha; for pest or weed control at 30 g/ha: application rate 30 g/ha. On the procedure:
as §1, §2, §3, §4

The test system of assay [6] is Amaranthus retroflexus (AMARE). The assay is described as follows: Test 1 glasshouse assay, pre-emergence herbicidal activity. The conditions noted are these: 312 h, visual evaluation after 13 days, read-out: Percentage phytotoxicity AMARE. On the procedure:
(§5) Seeds of a variety of test species are sown in standard soil in pots. After cultivation for one day (pre-emergence) or after 8 days cultivation (post-emergence) under controlled conditions in a glasshouse (at 24/16° C., day/night; 14 hours light; 65% humidity), the plants are sprayed with an aqueous spray solution derived from the formulation of the “technical” (i.e. unformulated) active ingredient in acetone/water (50:50) solution containing 0.5% Tween 20 (polyoxyethylene sorbitan monolaurate, CAS Registry Number 9005-64-5). The test plants are then grown on under controlled conditions in a glasshouse (at 24/16° C., day/night; 14 hours light; 65% humidity) and watered twice daily. After 13 days for pre- or post-emergence, the test is evaluated visually, and an assessed percentage phytotoxicity score is given for each herbicidal application on each plant species (where 100%=total damage to plant; 0%=no damage to plant).
(§6) Test plants include the following: Abutilon theophrasti (ABUTH), Amaranthus retroflexus (AMARE): these are dicotyledonous (broadleaved) weeds. Setaria faberi (SETFA), Alopecurus myosuroides (ALOMY), Echinochloa crus-galli (ECHCG): these are grassy monocotyledonous weeds. Also: Zea mays (ZEAMX, corn/maize), which can be a grassy weed (“volunteer” corn) in some circumstances.

Assay [7] relates to Abutilon theophrasti (ABUTH). The assay is described as above. Conditions: 312 h, visual evaluation after 13 days, read-out: Percentage phytotoxicity ABUTH. On the procedure: as §5, §6
Assay [8] concerns Alopecurus myosuroides (ALOMY). The assay is described as above. Conditions: 312 h, visual evaluation after 13 days, read-out: Percentage phytotoxicity ALOMY. On the procedure:
as §5, §6

Assay [9] deals with Echinochloa crus-galli (ECHCG). The description is as above. The conditions noted are these: 312 h, visual evaluation after 13 days, read-out: Percentage phytotoxicity ECHCG. The protocol:
as §5, §6

A further assay deals with Lolium perenne (LOLPE). Briefly: Test 2 glasshouse assay (IF50 formulation, X-77), pre-emergence herbicidal activity. Conditions: 480 h, 250 g/ha, 20DAA, read-out: Percentage phytotoxicity LOLPE. On the procedure: as §1, §2, §3
Cool climate (“cool season”) grassy monocotyledonous weeds: Alopecurus myosuroides (ALOMY), Avena fatua (AVEFA), Lolium perenne (LOLPE).

Assay [10] concerns Setaria faberi (SETFA). Described as above. The conditions noted are these: 480 h, 250 g/ha, 20DAA, read-out: Percentage phytotoxicity SETFA. The gist of the method: (§7)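 Glasshouse test: pots sown, grown one day (pre-emergence) or about 12 days (post-emergence) at 24/18 °C day/night for warm species, 16 h light, 65% humidity, then sprayed with IF50 in 0.2% v/v X-77. Visual % phytotoxicity scored 20 days (pre) or 15 days (post) after application.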

In assay [11] the test system is Panicum miliaceum (PANMI). The description is as above. Conditions: 480 h, 250 g/ha, 20DAA, read-out: Percentage phytotoxicity PANMI. The gist of the method:
as §7

For assay [12], the system named is Echinochloa crus-galli (ECHCG). The description is as above. Conditions: 480 h, 250 g/ha, 20DAA, read-out: Percentage phytotoxicity ECHCG. The gist of the method:
as §7

For the compound `C#CCC1CC(=O)C(c2cc(-c3ncc(Cl)cn3)ccc2C)C1=O` (stereo not shown) [Compound A19], the pest or weed control at 250 g/ha with Setaria faberi (SETFA) [1] was determined as 60%; in assay [2], 70%; in assay [3] it was 70%; in assay [4], 70%; in [5], 70%; in assay [6], 40%. In addition, the pest or weed control at 250 g/ha in [7] amounted to 40%; in [8], 60%; in assay [9], 50%.

Consider `C#CCC1CC(=O)C(c2c(Cl)cc(-c3ccc(Cl)cn3)cc2OC)C1=O` (stereo not shown) [Compound A10], for which the pest or weed control at 250 g/ha with Lolium perenne (LOLPE) is 70%; in the assay on Setaria faberi (SETFA) [10] it was 100%; in [11], 100%; in [12] it was 100%; with Setaria faberi (SETFA) [1], 100%; in [2] it was 100%. The pest or weed control at 250 g/ha in assay [3] is 100%; in assay [4], 100%; in assay [5] it was 100%; in assay [6] it was 100%; in assay [7], 60%; in assay [8], 100%. For the same compound, the pest or weed control at 250 g/ha in [9] amounted to 100%. For the same compound, the pest or weed control at 30 g/ha (with Setaria faberi (SETFA) [1]; in assay [2]; in assay [3]; in assay [4]; in assay [5]) was 100% in each case.

Regarding `C#CCC1CC(=O)C(c2cc(-c3ncc(Cl)cc3F)ccc2C)C1=O` (stereo not shown) [Compound A18], the pest or weed control at 250 g/ha with Setaria faberi (SETFA) [1] came out at 70%; in assay [2], 60%; in assay [3], 90%; in assay [4], 70%; in assay [5], 50%; in assay [6], 40%. Further, the pest or weed control at 250 g/ha in assay [7] was found to be 20%; in assay [8] it was 60%; in [9], 60%.

Consider `C#CCC1CC(=O)C(c2c(F)cc(-c3ccc(F)cc3)cc2OC)C1=O` (stereo not shown) [Compound A20, 2-[2-fluoro-4-(4-fluorophenyl)-6-methoxyphenyl]-4-prop-2-ynylcyclopentane-1,3-dione], for which the pest or weed control at 250 g/ha came to 70% in assay [6], 70% in assay [7], 90% in assay [8] and 100% in [9].

For the compound `C#CCC1CC(=O)C(c2c(C)cc(C)cc2C)C1=O` (stereo not shown) [Compound A23], the pest or weed control at 250 g/ha in the assay on Lolium perenne (LOLPE) was determined as 100%; in the assay with Setaria faberi (SETFA) [10] it was 90%; in [11], 100%; in [12], 100%; in assay [8], 100%; in assay [9] it was 100%. Besides, the pest or weed control at 125 g/ha in the assay on Setaria faberi (SETFA) [1] (application rate 125 g/ha) worked out at 80%; in [2] (application rate 125 g/ha), 100%; in assay [3] (application rate 125 g/ha), 100%; in [4] (application rate 125 g/ha), 90%; in [5] (application rate 125 g/ha), 100%.

With `C#CCC1CC(=O)C(c2cc(-c3ccc(Cl)cc3Cl)ccc2C)C1=O` (stereo not shown) [Compound A15], the pest or weed control at 250 g/ha in the assay on Lolium perenne (LOLPE) came out at 0%; with Setaria faberi (SETFA) [10], 20%; in assay [11], 20%; in assay [12], 10%; in the assay with Setaria faberi (SETFA) [1], 30%; in assay [2] it was 70%. Also, the figures for the pest or weed control at 250 g/ha in assay [3], in [4] and in [5] were 70%, 40% and 30%, respectively.

`C#CCC1CC(=O)C(c2c(F)cc(-c3ccc(Cl)cn3)cc2Cl)C1=O` (stereo not shown) [Compound A8]: the pest or weed control at 250 g/ha amounted to 80% in the assay with Lolium perenne (LOLPE); 70% in the assay with Setaria faberi (SETFA) [10]; 90% in assay [11]; 60% in assay [12]; 100% with Setaria faberi (SETFA) [1]; 100% in assay [2]. The pest or weed control at 250 g/ha in assay [3] is 100%; in [4], 100%; in assay [5], 100%; in [6], 90%; in assay [7], 0%; in [8], 90%. For the same compound, the pest or weed control at 250 g/ha in assay [9] came to 100%. For the same compound, the pest or weed control at 30 g/ha in the assay on Setaria faberi (SETFA) [1] came out at 90%; in assay [2] it was 100%; in assay [3] it was 70%; in assay [4], 100%; in assay [5] it was 90%.

As for `C#CCC1CC(=O)C(c2c(F)cc(-c3ccc(F)cc3F)cc2OC)C1=O` (stereo not shown) [Compound A21], the pest or weed control at 250 g/ha in assay [6] was 0%; in assay [7] it was 10%; in [8], 80%; in [9], 90%.

These data come from patent US10375956B2, “Herbicidally active 2-(substituted-phenyl)-cyclopentane-1,3-dione compounds and derivatives thereof” (Syngenta Limited, priority 2013, dated 2019).
